Values of other authors, collected in US6517854B2, “Antimicrobial sanitizing lotion with skin protection properties” (priority 1999, dated 2003).

What was measured:
fungi and yeasts = settings: organisms listed in the 1st table r65-r73
gram-positive bacteria = settings: organisms listed in the 1st table r1-r26
gram-negative bacteria = settings: organisms listed in the 1st table r28-r63

Oc1cc(Cl)ccc1Oc1ccc(Cl)cc1Cl [TRICLOSAN, 2,4,4′-trichloro-2′-hydroxydiphenyl ether]
demonstrated efficacy: efficacy against fungi and yeasts (fungi and yeasts) | efficacy against gram-positive bacteria (gram-positive bacteria) | efficacy against gram-negative bacteria (gram-negative bacteria)
